Columns and labels:
Type in all cases: cell-based
[1] = tested on: Saos2; experiment: MTT cytotoxicity assay, Saos2; settings: SAOS-2, Saos2, human osteosarcoma, p53-/-, Rb-/-, 72 hours, read-out: TCS50
Source text: (§1) One of the parameters used as the basis for colorimetric assays is the metabolic activity of viable cells. For example, a microtiter assay which uses the tetrazolium salt MTT is now widely used to quantitate cell proliferation and cytotoxicity [Hajduch M, Mihal V, Minarik J, Fáber E, ? afárová M, Weigl E, Antálek P.: Cytotechnology, 1996,19,243-245]. For instance, this assay is used in drug screening programs and in chemosensitivity testing. Because tetrazolium salts are cleaved only by metabolically active cells, these assays exclusively detect viable cells. In the case of the MTT assay, yellow soluble tetrazolium salt is reduced to a coloured water-insoluble formazan salt. After it is solubilized, the formazan formed can easily and rapidly be quantified in a conventional ELISA plate reader at 570 nm (maximum absorbancy). The quantity of reduced formazan corresponds to the number of vital cells in the culture. […]
(§2) The cell suspensions that were prepared and diluted according to the particular cell type and the expected target cell density (2.500-30.000 cells per well based on cell growth characteristics) were added by pipette (80 µl) into 96/well microtiter plates. […] Usually, test compounds were evaluated at six 4-fold dilutions. […] The optical density (OD) was measured at 540nm with the Labsystem iEMS Reader MF (UK). […]

[2] = tested on: B16F; experiment: MTT cytotoxicity assay, B16F; settings: mouse melanoma, metastatic, 72 hours, read-out: TCS50
Source text: as §1, §2

[3] = tested on: NIH3T3; experiment: MTT cytotoxicity assay, NIH3T3; settings: NIH3T3, mouse immortalised fibroblasts (non-malignant), 72 hours, read-out: TCS50
Source text: as §1, §2

[4] = tested on: HepG2; experiment: MTT cytotoxicity assay, HepG2; settings: HepG2, human hepatocellular carcinoma, 72 hours, read-out: TCS50
Source text: as §1, §2

[5] = tested on: MDA-MB-238; experiment: MTT cytotoxicity assay, MDA-MB-238; settings: MDA-MB-238, human breast cancer, estrogen independent, p53mut/mut, 72 hours, read-out: TCS50
Source text: as §1, §2

[6] = tested on: B16; experiment: MTT cytotoxicity assay, B16; settings: B16, mouse melanoma, 72 hours, read-out: TCS50
Source text: as §1, §2

[7] = tested on: CEM-DNR bulk; experiment: MTT cytotoxicity assay, CEM-DNR bulk; settings: human T-lymphoblastic leukemia, daunorubicin resistant, 72 hours, read-out: TCS50
Source text: as §1, §2

[8] = tested on: CEM-VCR bulk; experiment: MTT cytotoxicity assay, CEM-VCR bulk; settings: human T-lymphoblastic leukemia, vincristin resistant, 72 hours, read-out: TCS50
Source text: as §1, §2

[9] = tested on: SW620; experiment: MTT cytotoxicity assay, SW620; settings: SW-620, SW620, human colon cancer, metastasis, 72 hours, read-out: TCS50
Source text: as §1, §2

[10] = tested on: CEM-VCR 1/F3; experiment: MTT cytotoxicity assay, CEM-VCR 1/F3; settings: CEM-VCR 1/F3, human T-lymphoblastic leukemia, vincristin resistant, 72 hours, read-out: TCS50
Source text: as §1, §2

[11] = tested on: CEM; experiment: MTT cytotoxicity screening assay, CEM; settings: CCRF-CEM, human T-lymphoblastic leukemia, 72 hours, read-out: TCS50
Source text: One of the parameters used as the basis for colorimetric assays is the metabolic activity of viable cells. For example, a microtiter assay which uses the tetrazolium salt MTT is now widely used to quantitate cell proliferation and cytotoxicity [Hajduch M, Mihal V, Minarik J, Fáber E, ? afárová M, Weigl E, Antálek P.: Cytotechnology, 1996,19,243-245]. For instance, this assay is used in drug screening programs and in chemosensitivity testing. Because tetrazolium salts are cleaved only by metabolically active cells, these assays exclusively detect viable cells. In the case of the MTT assay, yellow soluble tetrazolium salt is reduced to a coloured water-insoluble formazan salt. After it is solubilized, the formazan formed can easily and rapidly be quantified in a conventional ELISA plate reader at 570 nm (maximum absorbancy). The quantity of reduced formazan corresponds to the number of vital cells in the culture.
Human T-lymphoblastic leukaemia cell line CEM was used for routine screening of these compounds. […] The cells were maintained in Nunc/Coming 80 cm^2 plastic tissue culture flasks and cultured in cell culture medium (DMEM with 5 g/l glucose, 2mM glutamine, 100 U/ml penicillin, 100 µg/ml streptomycin, 10% foetal calf serum and sodium bicarbonate). Individual compounds were dissolved in 10% dimethylsulfoxide/saline, pH 8.0.
The cell suspensions that were prepared and diluted according to the particular cell type and the expected target cell density (2.500-30.000 cells per well based on cell growth characteristics) were added by pipette (80 µl) into 96/well microtiter plates. Inoculates were allowed a pre-incubation period of 24 hours at 37°C and 5% CO2 for stabilisation. Four-fold dilutions of the intended test concentration were added at time zero in 20 µl aliquots to the microtiter plate wells. Usually, test compounds were evaluated at six 4-fold dilutions. In routine testing, the highest well concentration was 250 µM, but it may differ, depending on the agent. All drug concentrations were examined in duplicate. Incubations of cells with the test compounds lasted for 72 hours at 37°C, in 5% CO2 atmosphere and 100% humidity. At the end of the incubation period, the cells were assayed by using the MTT assay. Ten microliters of the MTT stock solution were pipetted into each well and incubated further for 1-4 hours. […] The optical density (OD) was measured at 540nm with the Labsystem iEMS Reader MF (UK). The tumour cell survival (TCS) was calculated using the following equitation: TCS= (ODdrug exposed well /mean ODcontrol wells) x 100%. The TCS50 value, the drug concentration lethal to 50% of the tumour cells, was calculated from the obtained dose response curves. […]

[12] = tested on: U20S; experiment: MTT cytotoxicity assay, U20S; settings: human osteosarcoma, p53+/-, Rb +/-, 72 hours, read-out: TCS50
Source text: as §1, §2

[13] = tested on: K562; experiment: MTT cytotoxicity assay, K562; settings: K562, human chronic myelogenous leukemia, 72 hours, read-out: TCS50
Source text: as §1, §2

[14] = tested on: human normal lymphocytes; experiment: MTT cytotoxicity assay, normal lymphocytes; settings: Lymphocyte, human normal lymphocytes (non-malignant), 72 hours, read-out: TCS50
Source text: as §1, §2

[15] = tested on: Caco-2; experiment: MTT cytotoxicity assay, Caco-2; settings: Caco-2, human colon cancer, 72 hours, read-out: TCS50
Source text: as §1, §2

[16] = tested on: K562-GEM; experiment: MTT cytotoxicity assay, K562-GEM; settings: human chronic myelogenous leukemia, gemcitabin resistant, 72 hours, read-out: TCS50
Source text: as §1, §2

[17] = tested on: OVCAR-3; experiment: MTT cytotoxicity assay, OVCAR-3; settings: OVCAR-3, human ovarian cancer, 72 hours, read-out: TCS50
Source text: as §1, §2

[18] = tested on: HT-29; experiment: MTT cytotoxicity assay, HT-29; settings: HT-29, human colon cancer, 72 hours, read-out: TCS50
Source text: as §1, §2

[19] = tested on: CEM-VCR 3/D5; experiment: MTT cytotoxicity assay, CEM-VCR 3/D5; settings: CEM-VCR 3/D5, human T-lymphoblastic leukemia, vincristin resistant, 72 hours, read-out: TCS50
Source text: as §1, §2

[20] = tested on: K562-FLUD; experiment: MTT cytotoxicity assay, K562-FLUD; settings: human chronic myelogenous leukemia, fludarabin resistant, 72 hours, read-out: TCS50
Source text: as §1, §2

[21] = tested on: K562-ARA-C; experiment: MTT cytotoxicity assay, K562-ARA-C; settings: human chronic myelogenous leukemia, cytarabin resistant, 72 hours, read-out: TCS50
Source text: as §1, §2

[22] = tested on: U87MG; experiment: MTT cytotoxicity assay, U87MG; settings: U-87 MG, human glioblastoma, 72 hours, read-out: TCS50
Source text: as §1, §2

[23] = tested on: A549; experiment: MTT cytotoxicity assay, A549; settings: A549, human lung adenocarcinoma, 72 hours, read-out: TCS50
Source text: as §1, §2

[24] = tested on: MCF-7; experiment: MTT cytotoxicity assay, MCF-7; settings: MCF7, MCF-7, human breast cancer, estrogen dependent, p53+/+, Rb +/+, 72 hours, read-out: TCS50
Source text: as §1, §2

[25] = tested on: BT549; experiment: MTT cytotoxicity assay, BT549; settings: BT-549, BT549, human breast cancer, p53mut/mut, 72 hours, read-out: TCS50
Source text: as §1, §2

[26] = tested on: K562-CdA; experiment: MTT cytotoxicity assay, K562-CdA; settings: human chronic myelogenous leukemia, cladrubin resistant, 72 hours, read-out: TCS50
Source text: as §1, §2

[27] = tested on: LNCaP; experiment: MTT cytotoxicity assay, LNCaP; settings: human prostate cancer, androgen dependent, 72 hours, read-out: TCS50
Source text: as §1, §2

[28] = tested on: MEL-3; experiment: MTT cytotoxicity assay, MEL-3; settings: MEL-3, human melanoma, 72 hours, read-out: TCS50
Source text: as §1, §2

[29] = tested on: CEM-DNR 1/C2; experiment: MTT cytotoxicity assay, CEM-DNR 1/C2; settings: CEM-DNR 1/C2, human T-lymphoblastic leukemia, daunorubicin resistant, 72 hours, read-out: TCS50
Source text: as §1, §2

[30] = tested on: DU145; experiment: MTT cytotoxicity assay, DU145; settings: DU-145, DU145, human prostate cancer, androgen independent, Rb-/-, 72 hours, read-out: TCS50
Source text: as §1, §2

Row | Compound | IC50 [1] [µM] | IC50 [2] [µM] | IC50 [3] [µM] | IC50 [4] [µM] | IC50 [5] [µM] | IC50 [6] [µM] | IC50 [7] [µM] | IC50 [8] [µM] | IC50 [9] [µM] | IC50 [10] [µM] | IC50 [11] [µM] | IC50 [12] [µM] | IC50 [13] [µM] | IC50 [14] [µM] | IC50 [15] [µM] | IC50 [17] [µM] | IC50 [18] [µM] | IC50 [19] [µM] | IC50 [20] [µM] | IC50 [21] [µM] | also measured
1 | CC1(C)CC[C@]23CC[C@]4(C)[C@H](CC[C@@H]5[C@@]6(C)CC(Br)C(=O)C(C)(C)[C@@H]6CC[C@]54C)[C@H]2[C@H]1OC3 (stereo partly drawn) [III.3, 2-brom-3-oxo-19β,28β-epoxy-18α-oleanan] | 1.8 | 4.7 | 7.2 | 1.7 | 1.4 | 2.1 | 1.1 | 2.5 | 1.2 | 3.3 | 1 | 1.5 | 0.2 | 13 | 3 | 1 | 1.6 | 2.9 | 0.4 | 0.6 | IC50 [16]: 0.9 µM; IC50 [22]: 5.1 µM; IC50 [23]: 1 µM; IC50 [24]: 2.3 µM; IC50 [25]: 2 µM; IC50 [26]: 0.3 µM; IC50 [27]: 1.1 µM; IC50 [28]: 1.3 µM; IC50 [29]: 0.6 µM; IC50 [30]: 0.8 µM
2 | CC1(C)CC[C@]23CC[C@]4(C)[C@H](CC[C@@H]5[C@@]6(C)CC(F)(F)C(=O)C(C)(C)[C@@H]6CC[C@]54C)[C@H]2[C@H]1OC3 [III.14, 19β,28β-epoxy-2,2-difluoro-18α-oleanan-3-one] | – | – | – | – | – | – | – | – | – | – | 170 | – | – | – | – | – | – | – | – | – | –
3 | C=C(C)[C@@H]1CC[C@]2(C(=O)O)CC[C@]3(C)[C@H](CC[C@@H]4[C@@]5(C)CC[C@H](O)C(C)(C)[C@@H]5CC[C@]43C)[C@@H]12 [Betulinic Acid, betulinic acid, reference compound] | 250 | 4.6 | 250 | 3.6 | 195 | 36 | 250 | 69 | 250 | 19 | 250 | 250 | 250 | 250 | 20 | 164 | 250 | 24 | 250 | 250 | IC50 [22]: 250 µM; IC50 [23]: 236 µM; IC50 [24]: 194 µM; IC50 [25]: 250 µM; IC50 [26]: 250 µM; IC50 [27]: 244 µM; IC50 [28]: 2.7 µM; IC50 [29]: 250 µM; IC50 [30]: 241 µM
4 | CC1(C)CC[C@]23CC[C@]4(C)[C@H](CC[C@@H]5[C@@]6(C)CC(N=[N+]=[N-])C(=O)C(C)(C)[C@@H]6CC[C@]54C)[C@H]2[C@H]1OC3 (stereo partly drawn) [III.10, 2-azido-3-oxo-19β,28β-epoxy-18α-oleanan] | – | – | – | – | – | – | – | – | – | – | 13 | – | – | – | – | – | – | – | – | – | –
